According to patent US6143715A, “Hepatitis C inhibitor peptide analogues” (priority 1998, dated 2000):
Like-named read-outs stand apart in the source and are kept apart here. Starred links: 1 amine or outer side, 2 acyl side, 3 side chain; linkers in the order of their positions; H or OH if unused. Non-standard residues stand in square brackets, D forms with d. Residues, ends and D or L forms follow the SMILES beside them. ξ: configuration not given here. *: point of attachment. NH(1S-phenylethyl) = C[C@H](N*)c1ccccc1; Hyp = O=C(O)[C@@H]1C[C@@H](O)CN1; azaNva = CCCN(N[*:1])C(=O)[*:2]; AzaAla = CN(N[*:1])C(=O)[*:2]; X7 = CCCCCN(N[*:1])C(=O)[*:2]; X2 = CCCN(N*)C(=O)OCc1ccccc1; X5 = CCCN(N*)C(=O)CCc1ccccc1; X6 = CCCC(N*)C(=O)CCc1ccccc1; Nva = CCC[C@H](N)C(=O)O; ξNva = CCCC(N)C(=O)O; ξAbu = CCC(N)C(=O)O; Bn = c1ccc(C*)cc1; CF3 = FC(F)(F)*

What was measured:
[1] = biological target: T1, HCV NS3 protease type 1b/NS4A cofactor peptide (Hepatitis C virus genotype 1b, UniProt P26663); experiment: biochemical; design: species or system hepatitis C virus (HCV) genotype 1b
T1 construct: recombinant HCV NS3 protease (amino acid 1027 to 1206) was cloned; made in house; host or cells: E. coli BL21(DE3)pLysS
Excerpt: a) Cloning, expression and purification of the recombinant HCV NS3 protease type lb
Serum from an HCV-infected patient was obtained through an external collaboration (Bernard Willems MD, Hopital St-Luc, Montreal, Canada and Dr. Donald Murphy, Laboratoire de Sante Publique du Quebec, Ste-Anne de Bellevue, Canada). An engineered full-length cDNA template of the HCV genome was constructed from DNA fragments obtained by reverse transcription-PCR (RT-PCR) of serum RNA and using specific primers selected on the basis of homology between other genotype lb strains. […] A DNA fragment encoding the polyprotein precursor (NS3/NS4A/NS4B/NS5A/NS5B) was generated by PCR and introduced into eucaryotic expression vectors.
The NS3 protease expression in E. coli BL21(DE3)pLysS was induced by incubation with 1 mM IPTG for 3 h at 22° C. […] The cells were resuspended in lysis buffer (3.0 mL/g) consisting of 25 mM sodium phosphate, pH 7.5, 10% glycerol (v/v), 1 mM EDTA, 0.01% NP-40 and stored at -80° C. Cells were thawed and homogenized following the addition of 5 mM DTT. Magnesium chloride and DNase were then added to the homogenate at final concentrations of 20 mM and 20 μg/mL respectively. After a 25 min incubation at 4° C., the homogenate was sonicated and centrifuged at 15000× g for 30 min at 4° C. The pH of the supernatant was then adjusted to 6.5 using a 1M sodium phosphate solution.
Briefly, the supernatant from the bacterial extract was loaded on a SP HiTrap column (Pharmacia) previously equilibrated at a flow rate of 2 mL/min in buffer A (50 mM sodium phosphate, pH 6.5, 10% glycerol, 1 mM EDTA, 5 mM DTT, 0.01% NP-40). The column was then washed with buffer A containing 0.15 M NaCl and the protease eluted by applying 10 column volumes of a linear 0.15 to 0.3 M NaCl gradient. NS3 protease-containing fractions were pooled and diluted to a final NaCl concentration of 0.1 M. The enzyme was further purified on a HiTrap Heparin column (Pharmacia) equilibrated in buffer B (25 mM sodium phosphate, pH 7.5, 10% glycerol, 5 mM DTT, 0.01% NP-40). The sample was loaded at a flow rate of 3 mL/min. The column was then washed with buffer B containing 0.15 M NaCl at a flow rate of 1.5 mL/min. Two step washes were performed in the presence of buffer B containing 0.3 or 1M NaCl. […] Finally, the NS3 protease-containing fractions were applied on a Superdex 75 HiLoad 16/60 column (Pharmacia) equilibrated in buffer B containing 0.3 M NaCl.
The enzyme was stored at -80° C. and was thawed on ice and diluted just prior to use.
Recombinant HCV NS3 Protease/NS4A Cofactor Peptide Radiometric Assay
The enzyme was stored at -80° C., thawed on ice and diluted just prior to use in the assay buffer containing the NS4A cofactor peptide.
The substrate used for the NS3 protease/[…] cofactor peptide radiometric assay, DDIVPC-SMSYTW, is cleaved between the cysteine and the serine residues by the enzyme. The sequence DDIVPC-SMSYTW corresponds to the NS5A/NS5B natural cleavage site in which the cysteine residue in […] has been substituted for a proline. […] (molar ratio enzyme: cofactor 1:100) in the absence or presence of inhibitors. The separation of substrate from products is performed by adding avidin-coated agarose beads to the assay mixture followed by filtration.
Assay buffer: 50 mM Tris HCl, pH 7.5, 30% (w/v) glycerol, 1 mg/mL BSA, 1 mM TCEP (TCEP added just prior to use from a 1 M stock solution in water)
Substrate: […], […] final concentration (from a 2 mM stock solution in DMSO stored at -20° C. to avoid oxidation).

human leukocyte elastase = biological target: T2, human leukocyte elastase (Homo sapiens, UniProt P08246); experiment: Specificity assay, human leukocyte elastase (pNA substrate); assay type: biochemical
T2 sequence (P08246 30-267): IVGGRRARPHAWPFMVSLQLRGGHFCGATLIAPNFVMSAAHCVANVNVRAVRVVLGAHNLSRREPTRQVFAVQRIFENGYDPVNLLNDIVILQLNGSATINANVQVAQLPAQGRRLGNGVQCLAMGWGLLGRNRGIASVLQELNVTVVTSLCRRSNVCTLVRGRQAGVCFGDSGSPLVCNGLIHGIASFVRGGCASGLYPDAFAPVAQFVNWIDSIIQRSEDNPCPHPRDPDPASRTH
Experimental: The specificity of the compounds was determined against a variety of serine proteases: human leukocyte elastase, porcine pancreatic elastase and bovine pancreatic α-chymotrypsin and one cysteine protease: human liver cathepsin B. In all cases a 96-well plate format protocol using a […] p-nitroanilide (pNA) substrate specific for each enzyme was used. Each assay included a 1 h enzyme-inhibitor pre-incubation at 30° C. followed by addition of substrate and hydrolysis to ≈30% conversion as measured on a UV Thermomax® microplate reader. Substrate concentrations were kept as low as possible compared to KM to reduce substrate competition. […] The final conditions for each assay were as follows:
(§1) 50 mM Tris-HCl pH 8, 0.5 M Na2 SO4, 50 mM NaCl, 0.1 mM EDTA, 3% DMSO, 0.01% Tween-20 with;
All other specificity assays were performed in a similar fashion.
(§2) The percentage of inhibition was calculated using the formula:
(§3) [1-(UVinh -UVblank)/(UVctl -UVblank))]×100

[2] = biological target: porcine pancreatic elastase (Sus scrofa, UniProt P00772); experiment: Specificity assay, porcine pancreatic elastase (pNA substrate); assay type: biochemical
Experimental: The specificity of the compounds was determined against a variety of serine proteases: human leukocyte elastase, porcine pancreatic elastase and bovine pancreatic α-chymotrypsin and one cysteine protease: human liver cathepsin B. In all cases a 96-well plate format protocol using a calorimetric p-nitroanilide (pNA) substrate specific for each enzyme was used. Each assay included a 1 h enzyme-inhibitor pre-incubation at 30° C. followed by addition of substrate and hydrolysis to ≈30% conversion as measured on a UV Thermomax® microplate reader. Substrate concentrations were kept as low as possible compared to KM to reduce substrate competition. […] The final conditions for each assay were as follows:
A representative example is summarized below for porcine pancreatic elastase:
In a polystyrene flat-bottom 96-well plate were added using a Biomek liquid handler (Beckman):
40 μL of assay buffer (50 mM Tris-HCl pH 8, 50 mM NaCl, 0.1 mM EDTA);
20 μL of enzyme solution (50 mM Tris-HCl pH 8, 50 mM NaCl, 0.1 mM EDTA, 0.02% Tween-20, 40 nM porcine pancreatic elastase); and

[3] = biological target: bovine pancreatic α-chymotrypsin (Bos taurus, UniProt P00766, DEL14-15/DEL147-148); experiment: Specificity assay, bovine pancreatic α-chymotrypsin (pNA substrate); assay type: biochemical; conditions: 1 h enzyme-inhibitor pre-incubation at 30° C., Succ-AAPF-pNA
Experimental: The final conditions for each assay were as follows:
as §1, §2, §3

HCV = conditions: as described in WO 97/06804; cited from earlier work
human liver cathepsin B = human liver cathepsin B (Homo sapiens, UniProt P07858); experiment: biochemical
Experimental: The specificity of the compounds was determined against a variety of serine proteases: human leukocyte elastase, porcine pancreatic elastase and bovine pancreatic α-chymotrypsin and one cysteine protease: human liver cathepsin B. In all cases a 96-well plate format protocol using a calorimetric p-nitroanilide (pNA) substrate specific for each enzyme was used. Each assay included a 1 h enzyme-inhibitor pre-incubation at 30° C. followed by addition of substrate and hydrolysis to ≈30% conversion as measured on a UV Thermomax® microplate reader. Substrate concentrations were kept as low as possible compared to KM to reduce substrate competition.

NS3 protease = NS3 protease (Hepatitis C virus genotype 1b, UniProt P26663); experiment: Inhibition of NS3 protease by N-terminal cleavage product; assay type: biochemical; conditions: N-terminal cleavage product of an analogue of a natural substrate
[4] = 1 h enzyme-inhibitor pre-incubation at 30° C., Succ-AAV-pNA
[5] = 1 h enzyme-inhibitor pre-incubation at 30° C., Succ-AAA-pNA

T1 sequence (P26663 1027-1206, other chains not shown): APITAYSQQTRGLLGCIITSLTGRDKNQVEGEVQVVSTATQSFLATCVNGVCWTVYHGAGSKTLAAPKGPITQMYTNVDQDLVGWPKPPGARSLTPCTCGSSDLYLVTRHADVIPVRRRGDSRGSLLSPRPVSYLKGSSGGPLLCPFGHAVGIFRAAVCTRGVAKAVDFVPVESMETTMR
porcine pancreatic elastase, sequence (P00772 27-266): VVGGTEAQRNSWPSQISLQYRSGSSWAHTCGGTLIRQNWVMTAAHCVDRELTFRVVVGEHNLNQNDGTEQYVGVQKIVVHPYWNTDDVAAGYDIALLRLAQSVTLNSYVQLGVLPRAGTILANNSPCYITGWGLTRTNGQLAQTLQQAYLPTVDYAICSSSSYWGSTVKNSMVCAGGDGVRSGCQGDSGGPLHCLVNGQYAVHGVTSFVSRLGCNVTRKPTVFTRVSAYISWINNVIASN
NS3 protease, sequence (P26663 1027-1206): as the sequence (P26663 1027-1206, other chains not shown) above

## CCCCCN(NC(=O)[C@@H]1C[C@@H](OCc2ccccc2)CN1C(=O)[C@@H](NC(=O)[C@@H](NC(=O)[C@@H](CCC(=O)O)NC(=O)[C@H](CC(=O)O)NC(C)=O)[C@@H](C)CC)C(C)C)C(=O)N[C@@H](C)c1ccccc1 [Compound 219] (Ac-D[dE]IV[Hyp](Bn)[X7]-{NH(1S-phenylethyl)})
[1]
  IC50: 0.43 µM
Human leukocyte elastase; [4]
  IC50: 151 µM

## CCCN(NC(=O)[C@@H]1C[C@@H](OCc2ccccc2)CN1C(=O)[C@@H](NC(=O)[C@@H](NC(=O)[C@@H](CCC(=O)O)NC(=O)[C@H](CC(=O)O)NC(C)=O)[C@@H](C)CC)C(C)C)C(=O)NCC(=O)OCC [Compound 201] (Ac-D[dE]IV[Hyp](Bn)[azaNva]G-OEt)
[2]; [5]
  IC50: 168 µM
[1]
  IC50: 3.9 µM
Human leukocyte elastase; [4]
  IC50: 27.4 µM

## CCCC(NC(=O)[C@@H]1C[C@@H](OCc2ccccc2)CN1C(=O)[C@@H](NC(=O)[C@@H](NC(C)=O)C1CCCCC1)C(C)C)C(=O)C(=O)NCc1ccccc1 (stereo partly drawn) [Compound 109]
[1]
  IC50: 23 µM
Human leukocyte elastase; [4]
  IC50: 2 µM

## CCCN(NC(=O)[C@@H]1C[C@@H](OCc2ccccc2)CN1C(=O)[C@@H](NC(=O)[C@@H](NC(=O)[C@@H](CCC(=O)O)NC(=O)[C@H](CC(=O)O)NC(C)=O)[C@@H](C)CC)C(C)C)C(=O)CCc1ccccc1 [Compound 202] (Ac-D[dE]IV[Hyp](Bn)-X5)
[1]
  IC50: 0.63 µM
Human leukocyte elastase; [4]
  IC50: 5.5 µM

## CCC[C@H](NC(=O)[C@@H]1C[C@@H](OCc2ccccc2)CN1C(=O)[C@@H](NC(=O)[C@@H](NC(=O)[C@@H](CCC(=O)O)NC(=O)[C@H](CC(=O)O)NC(C)=O)[C@@H](C)CC)C(C)C)C(=O)N[C@@H](C)c1ccccc1 [Compound 108] (Ac-D[dE]IV[Hyp](Bn)[Nva]-{NH(1S-phenylethyl)})
[2]; [5]
  IC50: > 300 µM
[3]
  IC50: > 300 µM
[1]
  IC50: 0.71 µM
Human leukocyte elastase; [4]
  IC50: 3 µM

## Nc1ccn([C@@H]2CS[C@H](CO)O2)c(=O)n1 (single isomer, unassigned) [3TC, (-) enantiomer of the nucleoside analogue cytosine-1,3-oxathiolane]
HCV
  active against HCV: active against HCV

## CCCN(NC(=O)[C@@H]1C[C@@H](OCc2ccccc2)CN1C(=O)[C@@H](NC(=O)[C@@H](NC(=O)[C@@H](CCC(=O)O)NC(=O)[C@H](CC(=O)O)NC(C)=O)[C@@H](C)CC)C(C)C)C(=O)OCc1ccccc1 [Compound 206] (Ac-D[dE]IV[Hyp](Bn)-X2)
[2]; [5]
  IC50: < 0.6 µM
[1]
  IC50: 0.79 µM
Human leukocyte elastase; [4]
  IC50: < 0.6 µM

## CCCC(NC(=O)[C@@H]1C[C@@H](OCc2ccccc2)CN1C(=O)[C@@H](NC(=O)[C@@H](NC(=O)[C@@H](CCC(=O)O)NC(=O)[C@H](CC(=O)O)NC(C)=O)[C@@H](C)CC)C(C)C)P(=O)(Oc1ccccc1)Oc1ccccc1 (single isomer, unassigned) [Compound 301]
[2]
  IC50: < 0.6 µM
[3]
  IC50: 3 µM
[1]; IC50: concentration required to obtain 50% inhibition in the NS3 protease/NS4A cofactor peptide radiometric assay, enzyme:cofactor 1:100, 40 min at 23° C.
  IC50: 0.029 µM
Human liver cathepsin B
  IC50: > 300 µM
Human leukocyte elastase
  IC50: < 0.6 µM

## CCC(NC(=O)[C@@H]1C[C@@H](OCc2ccccc2)CN1C(=O)[C@@H](NC(=O)[C@@H](NC(=O)[C@@H](CCC(=O)O)NC(=O)[C@H](CC(=O)O)NC(C)=O)[C@@H](C)CC)C(C)C)C(=O)C(F)(F)F (stereo partly drawn) [Compound 101] (Ac-D[dE]IV[Hyp](Bn)[ξAbu]-CF3)
[1]
  IC50: 9.4 µM
Human leukocyte elastase; [4]
  IC50: < 1.2 µM

## CCCN(NC(=O)[C@@H]1C[C@@H](OCc2ccccc2)CN1C(=O)[C@@H](NC(=O)[C@@H](NC(C)=O)C1CCCCC1)C(C)C)C(=O)N[C@@H](C)c1ccccc1 [Compound 215]
[1]
  IC50: 45 µM
Human leukocyte elastase; [4]
  IC50: 5 µM

## CCCC(C=O)NC(=O)[C@@H]1C[C@@H](OCc2ccccc2)CN1C(=O)[C@@H](NC(=O)[C@@H](NC(=O)[C@@H](CCC(=O)O)NC(=O)[C@H](CC(=O)O)NC(C)=O)[C@@H](C)CC)C(C)C (stereo partly drawn) [Compound 104] (Ac-D[dE]IV[Hyp](Bn)[ξNva]-aldehyde)
[2]; [5]
  IC50: 8 µM
[3]
  IC50: 8 µM
[1]
  IC50: 0.14 µM
Human leukocyte elastase; [4]
  IC50: 7 µM

## CC[C@H](C)[C@H](NC(=O)[C@@H](CCC(=O)O)NC(=O)[C@H](CC(=O)O)NC(C)=O)C(=O)N[C@H](C(=O)N1C[C@H](OCc2ccccc2)C[C@H]1C(=O)NN(C)C(=O)N[C@@H](C)c1ccccc1)C(C)C [Compound 221] (Ac-D[dE]IV[Hyp](Bn)[AzaAla]-{NH(1S-phenylethyl)})
[1]
  IC50: 0.52 µM
Human leukocyte elastase; [4]
  IC50: 168 µM

## CCCC(NC(=O)[C@@H]1C[C@@H](OCc2ccccc2)CN1C(=O)[C@@H](NC(=O)[C@@H](NC(=O)[C@@H](CCC(=O)O)NC(=O)[C@H](CC(=O)O)NC(C)=O)[C@@H](C)CC)C(C)C)C(=O)CCc1ccccc1 (stereo partly drawn) [Compound 106] (Ac-D[dE]IV[Hyp](Bn)-X6)
[1]
  IC50: 5.4 µM
Human leukocyte elastase
  IC50: 16 µM

## CCCN(NC(=O)[C@@H]1C[C@@H](OCc2ccccc2)CN1C(=O)[C@@H](NC(=O)[C@@H](NC(C)=O)C1CCCCC1)C(C)C)C(=O)C(=O)O [Compound 227]
[1]
  IC50: 39.5 µM

## Ac-DDIVPC-OH [Ac-D-D-I-V-P-C-OH]
NS3 protease
  inhibitory to the NS3 protease: inhibitory
